Activity calls are given as the source filed them. Cut-off read from the data, not from the text of the source: actives have a measured IC50 and inactives only a lower limit.

For the assay, the target named is Envelope glycoprotein gp160 (Human immunodeficiency virus 1, UniProt Q6QLK5). The experiment in a line: cell-free HIV fusion peptide-binding blockers – biochemical, uHTS, fluorescence dequenching, […] (AID 1986).
Sequence of Envelope glycoprotein gp160 (Q6QLK5 whole entry, the tested form may be a part): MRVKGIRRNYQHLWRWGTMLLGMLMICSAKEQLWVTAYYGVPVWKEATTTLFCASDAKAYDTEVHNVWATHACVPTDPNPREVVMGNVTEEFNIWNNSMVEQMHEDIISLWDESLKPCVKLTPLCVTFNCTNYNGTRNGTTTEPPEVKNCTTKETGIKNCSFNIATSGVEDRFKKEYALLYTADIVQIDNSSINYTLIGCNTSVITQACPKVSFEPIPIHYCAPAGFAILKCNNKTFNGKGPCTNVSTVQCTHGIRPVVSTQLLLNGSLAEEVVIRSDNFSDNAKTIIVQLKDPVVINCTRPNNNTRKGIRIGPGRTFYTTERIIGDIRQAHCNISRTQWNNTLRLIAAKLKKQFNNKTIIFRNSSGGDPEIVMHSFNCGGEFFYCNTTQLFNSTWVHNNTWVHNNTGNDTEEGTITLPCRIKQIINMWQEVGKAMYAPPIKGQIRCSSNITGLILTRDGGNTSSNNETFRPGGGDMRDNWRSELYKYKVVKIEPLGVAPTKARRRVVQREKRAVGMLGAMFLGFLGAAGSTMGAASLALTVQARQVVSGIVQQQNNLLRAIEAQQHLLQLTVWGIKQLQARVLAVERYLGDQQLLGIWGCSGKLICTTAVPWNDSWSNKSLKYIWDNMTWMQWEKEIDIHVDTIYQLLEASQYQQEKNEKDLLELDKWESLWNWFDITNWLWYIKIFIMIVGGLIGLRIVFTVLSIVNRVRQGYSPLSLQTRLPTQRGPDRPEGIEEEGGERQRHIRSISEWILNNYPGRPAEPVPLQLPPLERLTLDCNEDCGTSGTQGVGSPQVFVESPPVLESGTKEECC
Regarding `CC1(C)CC(=O)C2=C(C1)c1c(ccc3ccccc13)NC2c1cc([N+](=O)[O-])cc([N+](=O)[O-])c1O` (stereo not drawn), the 50% inhibitory concentration (IC50) (in general, the point on the concentration scale where inhibition reaches its midpoint) is 9.83 µM (active). The result for `CC(C)COc1ccc(-c2nn(-c3ccccc3)cc2/C=C2/SC(=S)N(CC(=O)O)C2=O)cc1` reads 8.09 µM (active). The result for `Cc1ccc2nc(N3C(=O)C(O)=C(C(=O)c4ccco4)C3c3cccc(O)c3)sc2c1` (stereo not drawn) reads 16.9 µM (active).

Source of the values: ChEMBL document CHEMBL1201862, “PubChem BioAssay data set” (2004).
